# Results taken from ChEMBL document CHEMBL5506062, “Discovery and Optimization of N-Arylated Tetracyclic Dicarboximides That Target Primary Glioma Stem-like Cells” (J Med Chem, 2024).
# Key:
# Assay type in all cases: ADME, organism-based
# [1] = Cmax in female CD-1 mouse plasma at 10 mg/kg, ip measured after 10 to 1440 mins by LC-MS/MS analysis
# [2] = Tmax in female CD-1 mouse plasma at 10 mg/kg, ip measured after 10 to 1440 mins by LC-MS/MS analysis
# [3] = AUClast in female CD-1 mouse plasma at 10 mg/kg, ip measured after 10 to 1440 mins by LC-MS/MS analysis
# [4] = Cmax in female CD-1 mouse brain at 10 mg/kg, ip measured after 10 to 1440 mins by LC-MS/MS analysis
# [5] = Tmax in female CD-1 mouse brain at 10 mg/kg, ip measured after 10 to 1440 mins by LC-MS/MS analysis
# [6] = AUClast in female CD-1 mouse brain at 10 mg/kg, ip measured after 10 to 1440 mins by LC-MS/MS analysis; conditions: in vivo
# [7] = Ratio of drug concentration in brain to plasma in female CD-1 mouse at 10 mg/kg, ip measured after 10 to 1440 mins by LC-MS/MS analysis; conditions: brain and plasma, read-out: K(p,uu,brain)
# [8] = Cmax in female CD-1 mouse plasma at 5 mg/kg, iv measured after 0 to 1440 mins by LC-MS/MS analysis
# [9] = Tmax in female CD-1 mouse plasma at 5 mg/kg, iv measured after 0 to 1440 mins by LC-MS/MS analysis
# [10] = AUClast in female CD-1 mouse plasma at 5 mg/kg, iv measured after 0 to 1440 mins by LC-MS/MS analysis
# [11] = Cmax in female CD-1 mouse brain at 5 mg/kg, iv measured after 0 to 1440 mins by LC-MS/MS analysis
# [12] = Tmax in female CD-1 mouse brain at 5 mg/kg, iv measured after 0 to 1440 mins by LC-MS/MS analysis
# [13] = AUClast in female CD-1 mouse brain at 5 mg/kg, iv measured after 0 to 1440 mins by LC-MS/MS analysis; conditions: in vivo
# [14] = Cmax in female CD-1 mouse plasma at 20 mg/kg, po measured after 0 to 1440 mins by LC-MS/MS analysis
# [15] = Tmax in female CD-1 mouse plasma at 20 mg/kg, po measured after 0 to 1440 mins by LC-MS/MS analysis
# [16] = AUClast in female CD-1 mouse plasma at 20 mg/kg, po measured after 0 to 1440 mins by LC-MS/MS analysis
# [17] = Cmax in female CD-1 mouse brain at 20 mg/kg, po measured after 0 to 1440 mins by LC-MS/MS analysis
# [18] = Tmax in female CD-1 mouse brain at 20 mg/kg, po measured after 0 to 1440 mins by LC-MS/MS analysis
# [19] = AUClast in female CD-1 mouse brain at 20 mg/kg, po measured after 0 to 1440 mins by LC-MS/MS analysis; conditions: in vivo
# [20] = Oral bioavailability in female CD-1 mouse plasma at 20 mg/kg measured after 0 to 1440 mins by LC-MS/MS analysis
# [21] = Oral bioavailability in female CD-1 mouse brain at 20 mg/kg measured after 0 to 1440 mins by LC-MS/MS analysis
# [22] = Cmax in female CD-1 mouse brain at 20 mg/kg, po measured at 90 mins by LC-MS/MS analysis
# [23] = Drug concentration in female CD-1 mouse plasma at 20 mg/kg, po measured at 30 mins by LC-MS/MS analysis
# [24] = Drug concentration in female CD-1 mouse brain at 20 mg/kg, po measured at 30 mins by LC-MS/MS analysis; conditions: read-out: Ct
# [25] = Drug concentration in female CD-1 mouse liver at 20 mg/kg, po measured at 30 mins by LC-MS/MS analysis; conditions: read-out: Ct
Cmax [1] [ng/mL],Tmax [2] [min],AUC(0-t) [3] [ng·h/mL],Cmax [4] [ng/g],Tmax [5] [min],AUClast [6] [ng·min/g],Kp uu [7],further results,SMILES
1970,30,7340,1110,30,220405,0.5,–,COc1ccc(C(=O)C2CC2c2ccc(N3C(=O)[C@@H]4[C@@H]5C=C[C@@H]([C@H]6C[C@@H]56)[C@@H]4C3=O)c(F)c2)cc1Cl (stereo partly specified)
887,10,4350,992,30,294638,1.13,–,COc1ccc(C(=O)C2CC2c2ccc(N3C(=O)[C@@H]4[C@@H]5C=C[C@@H]([C@H]6C[C@@H]56)[C@@H]4C3=O)cc2)cc1 (stereo partly specified)
3440,10,4780,978,30,83823,0.29,–,O=C(COc1cnc(N2C(=O)[C@@H]3[C@@H]4C=C[C@@H]([C@H]5C[C@@H]45)[C@@H]3C2=O)nc1)c1ccc(Cl)c(Cl)c1
1300,30,4830,2530,90,720503,2.49,Cmax [8]: 12000 ng/mL; Tmax [9]: 5 min; AUC(0-t) [10]: 14800 ng·h/mL; Cmax [11]: 3260 ng/g; Tmax [12]: 5 min; AUClast [13]: 767638 ng·min/g; Cmax [14]: 3400 ng/mL; Tmax [15]: 30 min; AUC(0-t) [16]: 23100 ng·h/mL; Cmax [17]: 2380 ng/g; Tmax [18]: 90 min; AUClast [19]: 1774789 ng·min/g; bioavailability [20]: 39%; bioavailability [21]: 58%; Cmax at […] [22]: 2380 ng/g; concentration at 0.5 h [23]: 1430 ng/mL; concentration at 0.5 h [24]: 1160 ng/g; concentration at 0.5 h [25]: 11500 ng/g,O=C(COc1ccc(N2C(=O)[C@@H]3[C@@H]4C=C[C@@H]([C@H]5C[C@@H]45)[C@@H]3C2=O)cc1)c1cc(Cl)cc(Cl)c1
